According to US5567692A, “9-[(substituted glycyl) amido)]-6-demethyl-6-deoxytetracyclines” (priority 1995, dated 1996):
Where a name gives a salt, the structure may show the parent alone. Read-outs that look alike come from different tables or passages of the source.

What was measured:
[1] = tested on: X. maltophilia NEMC 87210; test: MIC, agar dilution; assay type: cell-based; settings: Stenotrophomonas maltophilia, NEMC87210, 18 h
E. coli UBMS 90-4 Tet M = test: microbe, parasite or virus in culture; assay type: cell-based; settings: Escherichia coli, UBMS904TETM, 18 h
[2] = tested on: S. aureus UBMS 88-7 Tet K; test: microbe, parasite or virus in culture; assay type: cell-based; settings: Staphylococcus aureus, UBMS887TETK, 18 h
S. aureus ROSE (MP) = test: MIC, agar dilution; assay type: cell-based; settings: Staphylococcus aureus, 18 h
E. coli #311 (MP) = test: MIC, agar dilution; assay type: cell-based; settings: Escherichia coli, 18 h
[3] = tested on: S. aureus UBMS 90-1 Tet M; test: microbe, parasite or virus in culture; assay type: cell-based; settings: Staphylococcus aureus, UBMS901TETM, 18 h
S. marcescens FPOR 8733 = test: MIC, agar dilution; assay type: cell-based; settings: Serratia marcescens, FPOR8733, 18 h
E. coli UBMS 88-1 Tet B = test: microbe, parasite or virus in culture; assay type: cell-based; settings: Escherichia coli, UBMS881TETB, 18 h
[4] = tested on: E. coli UBMS 89-2 Tet sens.; test: MIC, agar dilution; assay type: cell-based; settings: Escherichia coli, 18 h
S. aureus IVES 1983 = test: MIC, agar dilution; assay type: cell-based; settings: Staphylococcus aureus, IVES1983, 18 h
S. aureus UBMS 88-4 = test: MIC, agar dilution; assay type: cell-based; settings: Staphylococcus aureus, UBMS884, 18 h
[5] = tested on: E. coli MC 4100 TNIOC Tet B; test: microbe, parasite or virus in culture; assay type: cell-based; settings: Escherichia coli, 18 h
[6] = tested on: S. hemolyticus AVHAH 88-3; test: MIC, agar dilution; assay type: cell-based; settings: Streptococcus pyogenes, AVHAH883, 18 h
E. coli UBMS 90-5 = test: microbe, parasite or virus in culture; assay type: cell-based; settings: Escherichia coli, UBMS905, 18 h, E. coli UBMS 90-5; read-out: MIC
E. coli J3272 Tet C = test: microbe, parasite or virus in culture; assay type: cell-based; settings: Escherichia coli, J3272TETC, 18 h
[7] = tested on: S. aureus UBMS 88-5 Tet M; test: microbe, parasite or virus in culture; assay type: cell-based; settings: Staphylococcus aureus, UBMS885TETM, 18 h
S. aureus IVES 2943 = test: MIC, agar dilution; assay type: cell-based; settings: Staphylococcus aureus, IVES2943, 18 h
E. coli ATCC 25922 = test: MIC, agar dilution; assay type: cell-based; settings: Escherichia coli, ATCC25922, 18 h
Enterococcus 12201 = test: MIC, agar dilution; assay type: cell-based; settings: Enterococcus, 12201, 18 h
[8] = tested on: Ps. aeruginosa ATCC 27853; test: MIC, agar dilution; assay type: cell-based; settings: Pseudomonas aeruginosa, ATCC27853, 18 h
S. aureus SMITH (MP) = test: MIC, agar dilution; assay type: cell-based; settings: Staphylococcus aureus, 18 h
[9] = tested on: S. aureus UBMS 90-2 Tet M; test: microbe, parasite or virus in culture; assay type: cell-based; settings: Staphylococcus aureus, UBMS902TETM, 18 h
[10] = tested on: E. coli MC 4100 Tet sens.; test: MIC, agar dilution; assay type: cell-based; settings: Escherichia coli, 18 h
E. coli PRP1 Tet A = test: microbe, parasite or virus in culture; assay type: cell-based; settings: Escherichia coli, PRP1TETA, 18 h
E. coli UBMS 89-1 Tet M = test: microbe, parasite or virus in culture; assay type: cell-based; settings: Escherichia coli, UBMS891TETM, 18 h
S. aureus ATCC 29213 = test: MIC, agar dilution; assay type: cell-based; settings: Staphylococcus aureus, ATCC29213, 18 h, S. aureus ATCC 29213
E. coli J2175 = test: MIC, agar dilution; assay type: cell-based; settings: Escherichia coli, 18 h, read-out: MIC
S. aureus UBMS 90-3 = test: MIC, agar dilution; assay type: cell-based; settings: Staphylococcus aureus, UBMS903, 18 h
E. faecalis ATCC 29212 = test: MIC, agar dilution; assay type: cell-based; settings: Enterococcus faecalis, ATCC29212, 18 h
S. aureus NEMC 8769 = test: MIC, agar dilution; assay type: cell-based
E. coli J3272 Tet D = test: microbe, parasite or virus in culture; assay type: cell-based; settings: Escherichia coli, J3272TETD, 18 h
E. coli BAJ9003 IMP MUT = test: microbe, parasite or virus in culture; assay type: cell-based; settings: Escherichia coli, BAJ9003IMPMUT, 18 h
[11] = tested on: Staphylococcus aureus strain Smith (tetracycline sensitive); test: Acute lethal infection in mice, S. aureus Smith; assay type: in vivo; settings: for ED50: Staphylococcus aureus, 168 h, mice, S. aureus Smith (Sens), 7 day survival, read-out: ED50
[12] = S. aureus IVES 2943, read-out: MIC
[13] = Enterococcus 12201, read-out: MIC
[14] = Ps. aeruginosa ATCC 27853, read-out: MIC
[15] = S. aureus SMITH (MP), read-out: MIC
[16] = S. aureus IVES 1983, read-out: MIC
[17] = S. aureus UBMS 90-3, read-out: MIC
[18] = E. faecalis ATCC 29212, read-out: MIC
[19] = Staphylococcus aureus, NEMC8769, 18 h

SMILES	MIC (E. coli UBMS 90-4 Tet M)	MIC [2]	MIC (E. coli #311 (MP))	MIC [3]	MIC (E. coli UBMS 88-1 Tet B)	MIC [4]	MIC (S. aureus UBMS 88-4)	MIC [5]	MIC [6]	MIC (E. coli UBMS 90-5)	MIC (E. coli J3272 Tet C)	MIC [7]	MIC (S. aureus IVES 2943; [12])	MIC [8, 14]	MIC [9]	MIC [10]	MIC (E. coli UBMS 89-1 Tet M)	MIC (E. coli J2175)	MIC (E. coli J3272 Tet D)	MIC (E. coli BAJ9003 IMP MUT)	other results
CC1CCN(CC(=O)Nc2ccc3c(c2O)C(=O)C2=C(O)[C@]4(O)C(=O)C(C(N)=O)=C(O)[C@@H](N(C)C)C4CC2C3)CC1 (stereo partly drawn) [A, [7S-(7alpha,10aalpha)]-N-(9-(Aminocarbonyl)-7-(dimethylamino)-5,5a,6,6a,7,10,10a,12-octahydro-1,8,10a,11-tetrahydroxy-10,12-dioxo-2-naphthacenyl]-4-methyl-1-piperidineacetamide dihydrochloride]	0.5 µg/mL	1 µg/mL	0.25 µg/mL	1 µg/mL	1 µg/mL	0.5 µg/mL	0.5 µg/mL	1 µg/mL	2 µg/mL	0.5 µg/mL	1 µg/mL	0.5 µg/mL	0.5 µg/mL	> 32 µg/mL	0.5 µg/mL	0.25 µg/mL	0.25 µg/mL	0.5 µg/mL	0.25 µg/mL	0.12 µg/mL	MIC ([1]; X. maltophilia NEMC 87210, read-out: MIC): 0.5 µg/mL; MIC (S. aureus ROSE (MP); read-out: MIC): 2 µg/mL; MIC (S. marcescens FPOR 8733): 8 µg/mL; MIC (S. aureus IVES 1983): 1 µg/mL; MIC (E. coli ATCC 25922; read-out: MIC): 0.25 µg/mL; MIC (Enterococcus 12201; [13]): 0.5 µg/mL; MIC (S. aureus SMITH (MP); [15]): 0.5 µg/mL; MIC (E. coli PRP1 Tet A): 1 µg/mL; MIC (S. aureus ATCC 29213; read-out: MIC): 0.5 µg/mL; MIC (S. aureus UBMS 90-3): 0.5 µg/mL; MIC (E. faecalis ATCC 29212): 0.25 µg/mL; MIC (S. aureus NEMC 8769): no growth
CC(C(=O)Nc1ccc2c(c1O)C(=O)C1=C(O)[C@]3(O)C(=O)C(C(N)=O)=C(O)[C@@H](N(C)C)C3CC1C2)N(C)C (stereo partly drawn) [B, [4S-(4alpha,12aalpha)]-4-(Dimethylamino)-9-[[2-(dimethylamino)-1-oxopropyl]amino]-1,4,4a,5,5a,6,11,12a-octahydro-3,10,12,12a-tetrahydroxy-1,11-dioxo-2-naphthacenecarboxamide dihydrochloride]	0.5 µg/mL	1 µg/mL	0.5 µg/mL	0.5 µg/mL	1 µg/mL	1 µg/mL	0.25 µg/mL	0.5 µg/mL	1 µg/mL	0.5 µg/mL	1 µg/mL	0.5 µg/mL	1 µg/mL	32 µg/mL	0.25 µg/mL	0.25 µg/mL	0.5 µg/mL	1 µg/mL	0.5 µg/mL	0.25 µg/mL	MIC [1]: 2 µg/mL; MIC (S. aureus ROSE (MP)): 4 µg/mL; MIC (S. marcescens FPOR 8733): 8 µg/mL; MIC (S. aureus IVES 1983; [16]): 1 µg/mL; MIC (E. coli ATCC 25922): 0.5 µg/mL; MIC (Enterococcus 12201): 0.25 µg/mL; MIC (S. aureus SMITH (MP)): 0.25 µg/mL; MIC (E. coli PRP1 Tet A): 2 µg/mL; MIC (S. aureus ATCC 29213; read-out: MIC): 0.25 µg/mL; MIC (S. aureus UBMS 90-3; [17]): 0.06 µg/mL; MIC (E. faecalis ATCC 29212; [18]): 0.25 µg/mL; MIC (S. aureus NEMC 8769; Staphylococcus aureus, NEMC8769, 18 h, read-out: MIC): 0.06 µg/mL
CCCNCC(=O)Nc1ccc2c(c1O)C(=O)C1=C(O)[C@]3(O)C(=O)C(C(N)=O)=C(O)[C@@H](N(C)C)C3CC1C2 (stereo partly drawn) [C, [4S-(4alpha,12aalpha)]-4-(Dimethylamino)-1,4,4a,5,5a,6,11,12a-octahydro-3,10,12,12a-tetrahydroxy-1,11-dioxo-9-[[(propylamino)acetyl]amino]-2-naphthacenecarboxamide dihydrochloride]	0.25 µg/mL	2 µg/mL		0.25 µg/mL	0.5 µg/mL	0.25 µg/mL	0.25 µg/mL			0.25 µg/mL	0.5 µg/mL	0.5 µg/mL	4 µg/mL	16 µg/mL	0.25 µg/mL	0.12 µg/mL	0.25 µg/mL	0.25 µg/mL	0.12 µg/mL	0.06 µg/mL	MIC [1]: 4 µg/mL; MIC (S. aureus ROSE (MP); read-out: MIC): 16 µg/mL; MIC (E. coli #311 (MP); E. coli #311 (MP), read-out: MIC): 0.5 µg/mL; MIC (S. marcescens FPOR 8733; read-out: MIC): 4 µg/mL; MIC (S. aureus IVES 1983; [16]): 4 µg/mL; MIC ([6]; S. hemolyticus AVHAH 88-3, read-out: MIC): 0.5 µg/mL; MIC (E. coli ATCC 25922): 0.12 µg/mL; MIC (Enterococcus 12201): 0.25 µg/mL; MIC (S. aureus SMITH (MP); [15]): 0.12 µg/mL; ED50 ([11]; iv, Intraveneous): 1 to 2 mg/kg; ED50 ([11]; po, Oral): > 16 mg/kg; in vivo activity (in words) ([11]; tested intravenously against the minocycline sensitive organism S. aureus Smith): very good in vivo activity; MIC (E. coli PRP1 Tet A): 1 µg/mL; MIC (S. aureus ATCC 29213; read-out: MIC): 0.25 µg/mL; MIC (S. aureus UBMS 90-3): 0.06 µg/mL; MIC (E. faecalis ATCC 29212; [18]): 0.12 µg/mL; MIC (S. aureus NEMC 8769; [19]): 0.06 µg/mL
CCN(CC)CC(=O)Nc1ccc2c(c1O)C(=O)C1=C(O)[C@]3(O)C(=O)C(C(N)=O)=C(O)[C@@H](N(C)C)C3CC1C2 (stereo partly drawn) [O, [4S-(4alpha,12aalpha)]-9-[[(Diethylamino)acetyl]amino]-4-(dimethylamino)-1,4,4a,5,5a,6,11,12a-octahydro-3,10,12,12a-tetrahydroxy-1,11-dioxo-2-naphthacenecarboxamide dihydrochloride]	0.5 µg/mL	0.5 µg/mL	1 µg/mL	0.5 µg/mL	1 µg/mL	1 µg/mL	0.5 µg/mL	1 µg/mL	2 µg/mL	1 µg/mL	1 µg/mL	0.5 µg/mL			0.5 µg/mL	0.5 µg/mL	0.5 µg/mL	1 µg/mL	0.5 µg/mL	0.12 µg/mL	MIC [1]: 1 µg/mL; MIC (S. aureus ROSE (MP)): 2 µg/mL; MIC (S. marcescens FPOR 8733; read-out: MIC): 8 µg/mL; MIC (S. aureus IVES 1983): 0.5 µg/mL; MIC (S. aureus IVES 2943): 1 µg/mL; MIC (E. coli ATCC 25922; read-out: MIC): 0.5 µg/mL; MIC (Enterococcus 12201; [13]): 0.25 µg/mL; MIC [8]: 32 µg/mL; MIC (S. aureus SMITH (MP); [15]): 0.25 µg/mL; MIC (S. aureus ATCC 29213): 0.5 µg/mL; MIC (S. aureus UBMS 90-3; [17]): 0.25 µg/mL; MIC (E. faecalis ATCC 29212; [18]): 0.25 µg/mL; MIC (S. aureus NEMC 8769; [19]): 1 µg/mL
